Assay: Human HepG2 cell viability assay in 384 well format
Type: toxicity, cell-based
Parameters: dose 125 nL, time 70.5 hour; cytotoxicity at 70.5 h: concentration not given beside the values
Details: HepG2 cells, read-out: Inhibition

| Compound | cytotoxicity at 70.5 h [%] |
| --- | --- |
| O=C1NCCCC[C@@H]1NC(=O)C1(N2CCCCC2)Cc2ccccc2C1 | -4.27 |
| O=C(NCc1nnnn1-c1ccccc1)c1ccc(C2CCCO2)s1 (configuration not stated) | -4.49 |
| NC(=O)C1CCCN(c2ncnc3c2Cc2ccccc2OC3)C1 (configuration not stated) | 19 |
| C[C@@H]1CN(c2ccc(Cl)cn2)CC[C@@]1(O)C1CCOCC1 | -1.93 |
| CN1CC2(CCN(C(=O)c3[nH]cnc3-c3ccccc3)C2)OC1=O (configuration not stated) | -3.76 |
| O=C(Cc1cc(F)cc(Cl)c1)N[C@@H]1CCNC[C@H]1O | -5.4 |
| CCNc1ncc(C(=O)N(C)Cc2nc3cc(Cl)ccc3[nH]2)cn1 | -13.7 |
| CN(CC1(CO)CC1)C(=O)C1CCC(=O)N(Cc2ccc(Cl)cc2)C1 (configuration not stated) | -1.51 |
| OC1(CNCc2noc(Cc3ccccc3)n2)CCCNC1 (configuration not stated) | 0.455 |
| CCN(Cc1nccn1C)C(=O)c1ccc(NCc2cnn(C)c2)nc1 | -3.96 |
| COc1ccc(-n2ccnc2-c2cnc(N(C)C)nc2)cc1OC | -6.47 |
| O[C@@H]1CN(CC2=Cc3cc(Cl)ccc3OC2)CC[C@H]1N1CCCCCC1 | -11 |
| O=C(c1ccc(S(=O)(=O)NCCc2ccncc2)cc1)N1CCCC1 | -19.6 |
| Cc1n[nH]c(C)c1CCc1nc(C2CC2)n[nH]1 | -6.37 |
| CCNC(=O)[C@@H]1C[C@H](N)CN1c1cc(C(F)(F)F)nc(N2CCCC2)n1 | 3.41 |
| COc1ccc2c(c1)OCC(Cc1ccc(N)cn1)C2 (configuration not stated) | 2.07 |
| COc1nc2c(cc1C(=O)NCCCc1csc(N)n1)CCC2 | -6.85 |
| CC(=O)N[C@@H]1CN(Cc2ccccc2-n2cccn2)C[C@H]1C(C)C | -4.08 |
| Cc1cc(C(=O)N2C[C@H]3CC[C@@H]2CN(C(=O)c2ccncc2)C3)cs1 | -1.99 |

| Compound | cytotoxicity at 70.5 h [%] |
| --- | --- |
| Cc1nccn1CCN(C)C(=O)c1cn(CC2CCCCC2)nn1 | -25.4 |
| CC(C)N1CCCC(C(=O)N2CCc3c(nc(CC4CC4)[nH]c3=O)C2)C1 (configuration not stated) | 3.48 |
| CN(C)CCN1CC(C(=O)N2CCC(c3nccn3C)CC2)CC1=O (configuration not stated) | 6.94 |
| c1ccc2c(c1)CC(Cc1cc(N3CCCC3)cnn1)CCO2 (configuration not stated) | 2.31 |
| Cc1ccc(C(=O)N2CC[C@H](N3CCOCC3)[C@H](CCCO)C2)cc1O | -8.22 |
| Cc1n[nH]c(C)c1Sc1ccccc1NC(=O)CN1CCCC1 | -3.41 |
| CC1(c2ccccc2)CCC(=O)N(CCCN2CCOCC2)C1 (configuration not stated) | -8.26 |
| CN1CC2(CCN(Cc3ncc[nH]3)CC2)CC1=O | -4.6 |
| NC(=O)CCn1cc(CNCc2csc(N)n2)c2ccccc21 | -2.33 |
| COCc1cn(C2CCN(Cc3ccc(Cl)s3)CC2)nn1 | -12.4 |
| CC(C)c1nc(C(=O)N2C[C@H](C(C)C)[C@@H](N)C2)cs1 | -0.955 |
| CC(C)(C)n1ccc(C(=O)N2CCCC(c3ccc(C(=O)O)cc3)C2)c1 (configuration not stated) | -13.3 |
| CC(=O)CCCC(=O)N(Cc1ccsc1)CC(C)C | -5.67 |
| O=C(NCCCc1ccccn1)c1cn(CCN2CCNCC2)nn1 | -9.59 |
| CCN(C)S(=O)(=O)N[C@H]1CN(c2ccc(F)cn2)C[C@@H]1C(C)C | -1.25 |
| Cc1cc(C(=O)N2CCc3[nH]cnc3C2C(=O)O)c(-c2ccccc2)o1 (configuration not stated) | -3.87 |
| Cc1ccccc1SCC(=O)N[C@H]1CC[C@H](n2cnnc2)CC1 | -5.74 |
| CCN1CC2(CCC1=O)CCN(CCc1nccn1C)CC2 | -6.75 |
| CC[C@H](C)[C@@H](CO)NC(C)Cc1ccc(Cl)cc1 (some centres not stated) | -2.7 |

| Compound | cytotoxicity at 70.5 h [%] |
| --- | --- |
| c1cc(CN2CCC(n3cc(CN4CCCC4)nn3)CC2)cs1 | -5.26 |
| Cc1cc(C)n2ncc(CN3CCC(n4cc(CCO)nn4)CC3)c2n1 | -1.82 |
| CCCN(Cc1nccn1C)C(=O)c1cc(C(C)C)on1 | 3.45 |
| CCc1cnc(NCCS(=O)(=O)N(C)C)nc1 | 20.6 |
| Cc1noc(CN2C[C@H]3CC[C@@H]2CN(C2Cc4ccccc4C2)C3)n1 | 4.75 |
| CC(C)CN1CCc2[nH]cnc2C12CCN(C(=O)c1ccccn1)CC2 | -3.63 |
| COc1ccccc1OC1CCN(C(=O)c2cnc(C)s2)CC1 | -4.88 |
| CC(C)N(Cc1nccn1C)C(=O)c1cnc(O)cn1 | -3.41 |
| c1ccc(C2CCCN2C2CCSCC2)nc1 (configuration not stated) | 0.0849 |
| O=c1[nH]cnc2c1CCN(S(=O)(=O)c1ccc(OC(F)(F)F)cc1)C2 | -9.4 |
| CC(C)CN1CCCn2nc(CNC(=O)OCc3ccccc3)cc2C1 | -5.5 |
| COc1ccc(N2CCN(C(=O)[C@H]3[C@@H]4CNC[C@@H]43)CC2(C)C)cc1 | 18.4 |
| CC(C)(C)c1ccc(C(=O)C2CCCN(C(=O)CNS(C)(=O)=O)C2)cc1 (configuration not stated) | 23.1 |
| CCc1cc(N(C)Cc2ncc[nH]2)nc(N2CCOCC2)n1 | -15.9 |
| COc1ccccc1C1CCN(c2ccc3cc[nH]c3n2)CC1 | -7.33 |
| Cc1ccccc1C(C(=O)O)N(C)CC1CCOCC1 (configuration not stated) | -2.17 |
| Cc1csc2c(N3CCC(NCCc4ccnn4C)CC3)ncnc12 | 6.94 |
| O=C(c1ccc2cccnc2n1)N(Cc1ccsc1)CC1CCCO1 (configuration not stated) | -12.4 |
| CCN1CCN(C(=O)c2cnc(Cc3c(Cl)cccc3Cl)nc2O)CC1 | -4.18 |

Source: ChEMBL document CHEMBL3507680, “University of Dundee, Gates Library screen for HepG2 cell viability”
